The results in this text go back to PubChem BioAssay AID328 (DTP/NCI, 2004).

Where “and” joins values, the source holds several entries; their conditions need not be identical. Identical values can stand only once. Inconclusive results and toxic doses are left out.

The test relates to BDF1 mice, P388 leukemia ip, median survival T/C. Kind of test: NCI In Vivo Anticancer Drug Screen. Data for tumor model P388 Leukemia (intraperitoneal) in B6D2F1 (BDF1) mice. Conditions: endpoint: median survival time, higher = longer survival. In short, it runs like this: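 Compound-treated tumour-bearing mice were compared with vehicle-treated controls. Survival was recorded, and the value is the treated-group measurement divided by the control-group measurement (T/C).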

Where [1] appears, read: dose: 50.0 mg/kg/injection, schedule: Q01DX009 (ip), vehicle: saline with Tween-80.
Where [2] appears, read: dose: 100.0 mg/kg/injection, schedule: Q01DX009 (ip), vehicle: Klucel (hydroxypropylcellulose) (HPC).
The mark [3] stands for this setting: dose: 100.0 mg/kg/injection, schedule: Q01DX009 (ip), vehicle: saline with Tween-80.
Where [4] appears, read: dose: 100.0 mg/kg/injection, schedule: Q04DX003 (ip), vehicle: Klucel (hydroxypropylcellulose) (HPC).
[5] abbreviates: dose: 100.0 mg/kg/injection, schedule: Q04DX003 (ip), vehicle: saline.
The mark [6] stands for this setting: dose: 200.0 mg/kg/injection, schedule: Q01DX009 (ip), vehicle: Klucel (hydroxypropylcellulose) (HPC).
Setting [7] is: dose: 200.0 mg/kg/injection, schedule: Q01DX009 (ip), vehicle: saline with Tween-80.
Setting [8] is: dose: 200.0 mg/kg/injection, schedule: Q04DX003 (ip), vehicle: Klucel (hydroxypropylcellulose) (HPC).
[9] abbreviates: dose: 400.0 mg/kg/injection, schedule: Q04DX003 (ip), vehicle: Klucel (hydroxypropylcellulose) (HPC).
The mark [10] stands for this setting: dose: 50.0 mg/kg/injection, schedule: Q01DX009 (ip), vehicle: Klucel (hydroxypropylcellulose) (HPC).
[11] abbreviates: dose: 100.0 mg/kg/injection, schedule: Q01DX009 (ip), vehicle: water.
Setting [12] is: dose: 200.0 mg/kg/injection, schedule: Q01DX009 (ip), vehicle: water.
Where [13] appears, read: dose: 400.0 mg/kg/injection, schedule: Q01DX009 (ip), vehicle: water.
Where [14] appears, read: dose: 6.25 mg/kg/injection, schedule: Q01DX009 (ip), vehicle: saline with Tween-80.
Setting [15] is: dose: 12.5 mg/kg/injection, schedule: Q01DX009 (ip), vehicle: saline with Tween-80.
The mark [16] stands for this setting: dose: 25.0 mg/kg/injection, schedule: Q01DX009 (ip), vehicle: saline with Tween-80.
The mark [17] stands for this setting: dose: 25.0 mg/kg/injection, schedule: Q01DX009 (ip), vehicle: Klucel (hydroxypropylcellulose) (HPC).

Turning to `CCOC(=O)c1cnn(-c2ccccc2)c1N`, the T/C (dose: 6.25 mg/kg/injection, schedule: Q04DX003 (ip), vehicle: saline) is 110 % of control; the T/C (dose: 12.5 mg/kg/injection, schedule: Q01DX009 (ip), vehicle: saline) was 102 % of control; the T/C (dose: 12.5 mg/kg/injection, schedule: Q04DX003 (ip), vehicle: saline) is 107 % of control; the T/C (dose: 25.0 mg/kg/injection, schedule: Q01DX009 (ip), vehicle: saline) is 96 % of control; the T/C (dose: 25.0 mg/kg/injection, schedule: Q04DX003 (ip), vehicle: saline) is 100 % of control; the T/C under setting [1] is 243 % of control. Moreover, the T/C by setting is: (dose: 50.0 mg/kg/injection, schedule: Q01DX009 (ip), vehicle: saline) 96 % of control and 104 % of control; (dose: 50.0 mg/kg/injection, schedule: Q04DX003 (ip), vehicle: saline) 100 % of control; under setting [2], 104 % of control; under setting [3], 241 % of control; (dose: 100.0 mg/kg/injection, schedule: Q01DX009 (ip), vehicle: saline) 104 % of control and 105 % of control; under setting [4], 95 % of control. The T/C reads like this: under setting [5], 95 % of control; under setting [6], 95 % of control; under setting [7], 91 % of control; (dose: 200.0 mg/kg/injection, schedule: Q01DX009 (ip), vehicle: saline) 86 % of control; under setting [8], 100 % of control; (dose: 400.0 mg/kg/injection, schedule: Q01DX009 (ip), vehicle: Klucel (hydroxypropylcellulose) (HPC)) 86 % of control. The T/C under setting [9] is 87 % of control.

With `CC1(c2cccc3ccccc23)NC(=O)c2ccccc2N1` (stereo not drawn), the T/C runs as follows: under setting [10], 105 % of control; under setting [2], 120 % of control.

As for `O=C(Cn1ccc(=O)[nH]c1=O)N1CCOCC1`, the T/C runs as follows: under setting [11], 104 % of control; under setting [12], 104 % of control; under setting [13], 95 % of control.

As to `Nc1nc(C(F)(F)F)c(CCCCc2ccccc2)c(=O)[nH]1`, the T/C runs as follows: (dose: 100.0 mg/kg/injection, schedule: Q01DX001 (ip), vehicle: Klucel (hydroxypropylcellulose) (HPC)) 111 % of control; (dose: 200.0 mg/kg/injection, schedule: Q01DX001 (ip), vehicle: Klucel (hydroxypropylcellulose) (HPC)) 117 % of control; (dose: 400.0 mg/kg/injection, schedule: Q01DX001 (ip), vehicle: Klucel (hydroxypropylcellulose) (HPC)) 98 % of control.

As for `Cn1c(Cc2ccccc2)c([N+](=O)[O-])c(=O)n(C)c1=O`, the T/C is 110 % of control under setting [1] and 113 % of control under setting [3].

Consider `CCN(CC)CCCC(C)Nc1ncnc2oc(C)c(C)c12` (stereo not drawn), for which the T/C is 95 % of control under setting [14], 100 % of control under setting [15] and 100 % of control under setting [16].

On to `C1=Cc2c3c(c4c(c2C1)C=CC4)C=CC3`, for which the T/C is 91 % of control under setting [1], 93 % of control under setting [3] and 95 % of control under setting [7].

With `C(#C[P+]1(c2ccccc2)C=C(c2ccccc2)OC(c2ccccc2)=C1)c1ccccc1`, where the note is “dose: 50.0 mg/kg/injection, schedule: Q01DX005 (ip), vehicle: saline with Tween-80”, the T/C is 110 % of control.

As for `NC(=O)c1cc(O)c(Br)c(O)c1`, the T/C was 100 % of control (dose: 100.0 mg/kg/injection, schedule: Q01DX001 (ip), vehicle: saline); 109 % of control (dose: 200.0 mg/kg/injection, schedule: Q01DX001 (ip), vehicle: saline); 95 % of control (dose: 400.0 mg/kg/injection, schedule: Q01DX001 (ip), vehicle: saline).

As to `Oc1ccc(/C=N/NC(=S)Nc2ccccc2)nc1`, the T/C under setting [9] is 150 % of control.

For `CC1NC(=O)C2Cc3ccc(O)c(c3)Oc3cccc(c3)C(O)C(C(=O)N2C)N(C)C(=O)C(C)NC(=O)C(Cc2ccc(O)c(O)c2)N(C)C(=O)C(C)NC1=O` (stereo not drawn), the T/C is 94 % of control (dose: 0.25 mg/kg/injection, schedule: Q01DX009 (ip), vehicle: distilled water + Tween-80); 99 % of control (dose: 0.5 mg/kg/injection, schedule: Q01DX009 (ip), vehicle: distilled water + Tween-80); 94 % of control (dose: 1.0 mg/kg/injection, schedule: Q01DX009 (ip), vehicle: distilled water + Tween-80); 96 % of control (dose: 2.0 mg/kg/injection, schedule: Q01DX009 (ip), vehicle: distilled water + Tween-80); 99 % of control (dose: 4.0 mg/kg/injection, schedule: Q01DX009 (ip), vehicle: distilled water + Tween-80); 99 % of control (dose: 8.0 mg/kg/injection, schedule: Q01DX009 (ip), vehicle: distilled water + Tween-80).

Consider `CN=S(=O)(OCCN(C)CCOS(=O)(=NC)c1ccc(C)cc1)c1ccc(C)cc1` (stereo not drawn), for which the T/C is 112 % of control (dose: 50.0 mg/kg/injection, schedule: Q01DX009 (ip), vehicle: saline + alcohol); 103 % of control (dose: 100.0 mg/kg/injection, schedule: Q01DX009 (ip), vehicle: saline + alcohol); 116 % of control (dose: 200.0 mg/kg/injection, schedule: Q01DX009 (ip), vehicle: saline + alcohol).

On to `Cn1cnccc1=O`, for which the T/C is, setting by setting: (dose: 50.0 mg/kg/injection, schedule: Q01DX009 (ip), vehicle: water) 122 % of control; under setting [11], 121 % of control; (dose: 100.0 mg/kg/injection, schedule: Q04DX003 (ip), vehicle: water) 118 % of control; under setting [12], 102 % of control; (dose: 200.0 mg/kg/injection, schedule: Q04DX003 (ip), vehicle: water) 106 % of control; under setting [13], 103 % of control. In addition, the T/C (dose: 400.0 mg/kg/injection, schedule: Q04DX003 (ip), vehicle: water) is 115 % of control.

Consider `COc1ccc(COC(=O)NC(CCS(C)=O)C(=O)O)cc1` (stereo not drawn), for which the T/C is 91 % of control under setting [1], 99 % of control under setting [3] and 99 % of control under setting [7].

Regarding `COc1ccc2c(c1)NC(c1ccccc1C(=O)O)c1cccn1-2` (stereo not drawn), the T/C runs as follows: under setting [14], 90 % of control; under setting [15], 97 % of control; under setting [16], 97 % of control.

As for `N#C/C(=C1C=C(Br)/C(=N\O)C=C\1Cl)c1ccc(Cl)cc1`, the T/C reads like this: under setting [17], 115 % of control; under setting [10], 110 % of control; under setting [2], 115 % of control and 123 % of control; under setting [4], 100 % of control; (dose: 150.0 mg/kg/injection, schedule: Q01DX009 (ip), vehicle: Klucel (hydroxypropylcellulose) (HPC)) 109 % of control; under setting [6], 123 % of control. Moreover, the T/C is, setting by setting: under setting [8], 118 % of control; (dose: 225.0 mg/kg/injection, schedule: Q01DX009 (ip), vehicle: Klucel (hydroxypropylcellulose) (HPC)) 109 % of control; under setting [9], 113 % of control.

For the molecule `CC1(C)COC(c2ccc(C(C)(C)C)cc2C(O)(c2cc(C(C)(C)C)ccc2C2=NC(C)(C)CO2)c2cc(C(C)(C)C)ccc2C2=NC(C)(C)CO2)=N1`, the T/C reads like this: (dose: 100.0 mg/kg/injection, schedule: Q04DX003 (ip), vehicle: saline with Tween-80) 92 % of control and 94 % of control; (dose: 200.0 mg/kg/injection, schedule: Q04DX003 (ip), vehicle: saline with Tween-80) 94 % of control; (dose: 400.0 mg/kg/injection, schedule: Q04DX003 (ip), vehicle: saline with Tween-80) 90 % of control and 94 % of control.

As for `CC1CNC(=O)O1` (stereo not drawn), the T/C is 115 % of control under setting [5]; 110 % of control (dose: 200.0 mg/kg/injection, schedule: Q04DX003 (ip), vehicle: saline); 95 % of control (dose: 400.0 mg/kg/injection, schedule: Q04DX003 (ip), vehicle: saline).

As for `CCCCN(CCCC)CCCNC(=O)OCC`, the T/C is, setting by setting: under setting [17], 100 % of control; (dose: 25.0 mg/kg/injection, schedule: Q04DX003 (ip), vehicle: Klucel (hydroxypropylcellulose) (HPC)) 100 % of control; under setting [10], 110 % of control; (dose: 50.0 mg/kg/injection, schedule: Q04DX003 (ip), vehicle: Klucel (hydroxypropylcellulose) (HPC)) 104 % of control; under setting [2], 115 % of control; under setting [4], 109 % of control.
